The values below come from patent US8802235B2, “Drug and imaging agent delivery compositions and methods” (priority 2012, dated 2014).

One series deals with 4T1.2 Neu cells. Briefly: In vitro cytotoxicity (resazurin blue), 4T1.2 Neu. Type of series: cell-based, murine. The conditions noted are these: 72 h, Star-GA on GA basis, read-out: IC50s 4T1.2 Neu. The protocol: (§1) B16F10 (lymphatically metastatic murine melanoma), MDA-MB-231 (human breast cancer), and HUVEC (normal human endothelial) cell lines, were maintained in Dulbecco's modified Eagle's medium (DMEM) supplemented with 1% L-Glutamine and 10% bovine growth serum in 5% CO2 atmosphere. The HER2-expressing murine breast cancer cell line, 4T1.2 Neu was maintained in DMEM supplemented with 1% L-Glutamine, 10% bovine growth serum, and 500 μg/mL of G418 (geneticin) in 5% CO2 atmosphere. The lymphatically metastatic human melanoma cell line, A2058 was maintained in low sodium bicarbonate (1.5 g/L) containing DMEM supplemented with 1% L-Glutamine, 10% bovine growth serum in 5% CO2 atmosphere.
(§2) Prior to cell growth inhibition studies, cells were trypsinized and seeded at 3000 cells/well into 96-well tissue culture plates. After 24 hours, geldanamycin, 17-DMAG, 17-AAG, 17-HEAG, Star-GA (GA basis), or melphalan hydrochloride dilutions in 1×PBS (Fisher BioReagents, pH 7.4) with up to 3% DMSO (final well concentration, for the highest drug concentration) were added to the B16F10, A2058, HUVEC, 4T1.2 Neu, or MDA-MB-231 cells (n=8 or 12, 10 μL/well, 8 or 6 concentrations 10^−10 to 10^−3 M, respectively). Solutions of 10% trichloracetic acid was used as a negative control, media was used as a positive control, and 3% DMSO was used as an additional control (n=8 or 12, 10 μL/well). At 72 h post addition, 10 μL of resazurin blue in PBS was added (5 μM final concentration) to each well. After 3 hours, well fluorescence was measured (λex/λem=560/590 nm) (SpectraMax Gemini, Molecular Devices). IC50s were determined using the nonlinear regression curve fit of a one-site competition (GraphPad Prism 10).

The next series concerns A2058 cells. Briefly: In vitro cytotoxicity (resazurin blue), A2058. The class given is cell-based, human. The conditions noted are these: read-out: IC50s A2058. As for the experimental part:
as §1, §2

The next series has as its system HUVEC cells. Briefly: In vitro cytotoxicity (resazurin blue), HUVEC. The class given is cell-based, human. As for the experimental part:
as §1, §2
(The colour change of resazurin is a common sign of viable cells or microbes.)

For a further series, the system named is B16F10 cells. Briefly: cells. The class given is cell-based, murine. The conditions noted are these: for IC50: read-out: IC50s B16F10. As for the experimental part: as §1, §2
The nature of series [1]: Metastatic analysis of axillary lymph nodes by nodal volume and rtPCR. The settings on record: one mouse.
Method: The metastatic state of the 4T1.2 Neu tumor model post treatment was assessed by axillary lymph node volume and the nodal HER 2 expression.
The total RNAs from the frozen lymph node samples were extracted using TriZol reagent (Invitrogen). The first-strand cDNA was synthesized using the Omniscript-RT Kit (QIAGEN, Valencia, Calif.). Primers for the Erbb2 (HER2 RT^2 qpCR primer assay, proprietary primer sequence, QIAGEN) and 18S housekeeping gene (forward: 5′-[sequence]-3′ reverse: 5′-[sequence]-3′) (IDT Inc, Coralville, Iowa) were used. The real-time PCR, in a reaction volume of 25 μL, was performed using the SYBR Green Supermix kit with the Bio-Rad iQ5 system (Hercules, Calif.).
During the lymph node harvesting, gross visualization of the organs was made to identify any obvious signs of metastases, growths, or toxicities associated with any of the treatments.
The next series concerns B16F10 tumors. Type of series: in vivo. The conditions noted are these: for B16F10 tumor response: melphalan i.v. 5 mg/kg, 17-DMAG i.v. 15 mg/kg, Star-GA s.c. 15 mg/kg DMAG equivalent, polymer s.c. equivalent dose, vs non-treated. The protocol:
. The tumors were measured and recorded, the volumes were calculated using the equation: Tumor Volume (mm^3)=0.52×(width)^2×length. When the B16F10 tumors reached 200-350 mm^3 (ca. Days 6-9), mice were randomly divided into five treatment groups: melphalan (i.v., n=5), 17-DMAG (i.v., n=4), star polymer (s.c., n=6), Star-GA (s.c., n=7), or no treatment (n=4) (FIG. 30).
Mice in the melphalan treatment group were injected once with melphalan (5 mg/kg) intravenously via the tail veil under isoflurane anesthesia. The formulation used to treat mice bearing B16F10 tumors was modified slightly from the product insert for ALKERAN (melphalan hydrochloride) for injections into humans. Melphalan was dissolved in concentrated hydrochloric acid (35-38%) to give a 15 mg/mL solution. The melphalan solution was then aliquoted into vials to give 0.75 mg melphalan/vial, and was dried using a speedvac concentrator (Labconoco) for 1.5 hours at 35° C. followed by 1 hour at ambient temperature. The vials containing dry melphalan hydrochloride were sealed and placed at −20° C. until further use. The reconstituted solution was prepared by first pre-sterilizing propylene glycol, 95% ethanol, and 0.02 g/mL sodium citrate solution, using a sterile syringe fitted with a 0.22 μm sterile filter (Millex GP PES membrane sterile filter, Millipore) into a sterile falcon tube. Then the reconstituted solution was prepared by combining 6 mL sterile propylene glycol, 0.52 mL sterile ethanol (95%), and 3.48 mL sodium citrate solution, and the solution was mixed well and filtered a second time with at 0.22 μm sterile filter. Immediately prior to injection, the 150 μL of the sterile reconstituted solution was rapidly added to the melphalan hydrochloride, the vial was immediately shaken vigorously until dissolved, followed by the rapid addition of 150 μL of sterile saline yielding a 2.5 mg/mL melphalan solution. The melphalan was dosed within 10 to 15 minutes after reconstitution to minimize degradation.
17-DMAG was dissolved in sterile DMSO and administered i.v. via the tail vein at a dose of 15 mg/kg (MTD). […]

Another series relates to 4T1.2 Neu tumors. Briefly: Anticancer efficacy in 4T1.2 Neu tumor bearing mice. Type of series: in vivo. The conditions noted are these: 17-DMAG i.v. 10 mg/kg, Star-GA s.c. 45 mg/kg. The source says:
During cell preparation of the 4T1.2 Neu cells for implantation, G418 free media was used. Prior to tumor implantation, the hair surrounding the right upper portion of the mouse's chest was removed with depilatory cream. […].
Seven week old (18-22 g) female Balb/c mice purchased from Jackson Laboratory (Bar Harbor, Me.) were used in this study. On Day 7, when tumors reached 100-250 mm^3, mice were randomly divided into four treatment groups, consisting of no treatment (n=7), 60% […] (n=5), 17-DMAG (n=7), and Star-GA (n=8). The 17-DMAG was dosed at 10 mg/kg i.v. as a 1:1 sterile DMSO:PBS solution. Star-GA was dosed at 45 mg/kg (17-HEAG basis, 15% loading, 300 mg/kg Star-GA conjugate), in sterile 35% DMSO and 65% PBS, which was divided into two peritumoral injections on either side of the mammary tumor. Finally, the 60% […] was dosed at an equivalent star polymer concentration used for the 45 mg/kg Star-GA (255 mg/kg 60% […]), which was divided into two peritumoral injections onto either side of the mammary tumor. Tumor volumes were monitored and reported every two days (FIG. 33).
To minimize the occurrence of necrotic tails upon dosing 17-DMAG, as observed in the B16F10 in vivo study described in the previous section, 17-DMAG was dosed at 10 mg/kg i.v. in a 1:1 sterile DMSO:PBS solution rather than 15 mg/kg in 100% DMSO.

For a further series, the system named is MDA-MB-231 cells. Briefly: In vitro cytotoxicity (resazurin blue), MDA-MB-231. The class given is cell-based, human. The settings on record: 72 h, Star-GA on GA basis, read-out: IC50s MDA-MB-231. As for the experimental part:
as §1
Prior to cell growth inhibition studies, cells were trypsinized and seeded at 3000 cells/well into 96-well tissue culture plates. […] After 3 hours, well fluorescence was measured (λex/λem=560/590 nm) (SpectraMax Gemini, Molecular Devices). IC50s were determined using the nonlinear regression curve fit of a one-site competition (GraphPad Prism 10).

The conditions of series [2]: 17-DMAG i.v.; cited from earlier work.
The next series has as its system MDA-MB-468 cells. Briefly: Cell growth inhibition (resazurin blue), MDA-MB-468. Type of series: cell-based, human. The conditions noted are these: 72 hours. The protocol: (§3) Cell growth inhibition was determined in 96-well plates (3,000 cells/well in 100 μL, 12 replicates/sample) using highly invasive human breast cancer cells, MDA-MB-231, non-metastatic human breast cancer cells, MDA-MB-468, and highly invasive human head and neck squamous cell cancer cells positive for epithelia growth factor receptor, MDA-1986. Drug or conjugate solutions were applied after 24 hours, and 72 hours post-addition, resazurin blue in 10 μL of PBS was applied to each well (final concentration 5 μM).

For series [3], the system named is MDA-1986 human head and neck squamous cell carcinoma. Briefly: Head and neck tumor model, efficacy of sugar-NO1. The class given is in vivo, female nude mice.
For series [4], the system named is MDA-1986 cells. Briefly: Cell growth inhibition (resazurin blue), MDA-1986. Type of series: cell-based, human. The conditions noted are these: 72 hours. The protocol: as §3
Series [5] deals with MDA-1986 cells. Briefly: Nitric oxide release (Griess) in cell culture with MDA-1986 cells. Type of series: cell-based, human. The protocol:
The fluorescence intensity was measured between 520 and 550 nm using a fluorescence microplate reader.
The concentration of nitrite, the stable breakdown product of gaseous nitric oxide, was measured using Griess assay as an indirect measurement of nitric oxide concentration in cell culture media. The assay is based on the reaction between sulfanilamide, N-1-napthyethylenediamine dihydrochloride and nitrite, under acidic conditions to produce a […] azo compound.
Background: The Griess reaction detects nitrite, a stable product of nitric oxide.

For series [6] the following is noted: cited from earlier work.
The mark [7] stands for this setting: 72 h; Star-GA on GA basis; read-out: IC50s HUVEC.

Where two headings read alike, the source gives them in different places.

On to `C=CCNC1=C2C[C@@H](C)C[C@H](OC)[C@H](O)[C@@H](C)/C=C(\C)[C@H](OC(N)=O)[C@@H](OC)/C=C\C=C(/C)C(=O)NC(=CC1=O)C2=O` [17-AAG, 17-allylamino-17-demethoxygeldanamycin], for which the IC50 with 4T1.2 Neu cells came to 315 nM; in the series on A2058 cells (72 h, Star-GA on GA basis), 53 nM; with HUVEC cells (setting [7]), 64000 nM; with B16F10 cells (72 h, Star-GA on GA basis) it was 825 nM.
Regarding `CO[C@H]1/C=C\C=C(/C)C(=O)NC2=CC(=O)C(NCCN(C)C)=C(C[C@@H](C)C[C@H](OC)[C@H](O)[C@@H](C)/C=C(\C)[C@@H]1OC(N)=O)C2=O` [17-DMAG, 17-dimethylaminoethylamino-17-demethoxygeldanamycin], the “gross visualization of the organs” value in series [1] is given as “appeared to have liver metastases”. Further, the “physical signs of toxicities” value in the series on B16F10 tumors (B16F10 study doses) is on record as “signs of tail necrosis”. Besides, in the series on B16F10 tumors, the B16F10 tumor response result is reported as “did not exhibit statistically significant tumor growth inhibition”. Further, the IC50 with 4T1.2 Neu cells stood at 296 nM; with A2058 cells (72 h, Star-GA on GA basis), 44 nM; with HUVEC cells (setting [7]), 29000 nM; with B16F10 cells (72 h, Star-GA on GA basis), 250 nM; in the series on MDA-MB-231 cells, 189 nM. In addition, the survival entry in the series with 4T1.2 Neu tumors is “neither 17-DMAG nor star-GA treatments exhibited an increase in survival”. Also, in the series on 4T1.2 Neu tumors (polymer 255 mg/kg), the “4T1.2 Neu tumor response compared to non-treated mice” value is recorded as “no statistical significances”. Further, the “increase in in vitro toxicity in comparison to melphalan” value with B16F10 cells (B16F10 cell line) is 400 fold. In addition, the MTD in series [2] is given as 15 mg/kg.
`CCOC(=O)N1CCN(/[N+]([O-])=N/Oc2ccc([N+](=O)[O-])cc2[N+](=O)[O-])CC1` [JS-K, O^2-(2,4-Dinitrophenyl) 1-[(4-ethoxycarbonyl)piperazin-1-yl]diazen-1ium-1,2-diolate]: the IC50 in the series with MDA-MB-468 cells turned out to be 42000 ± 4000 nM. In [3] (10 mg/kg on NO prodrug basis), the “disease condition (modified RECIST), animal No. 1” value was “PD (PD = Progressive Disease (>30% tumor growth))”; the “disease condition (modified RECIST), animal No. 2” value was “Necrosis”; the “disease condition (modified RECIST), animal No. 3” value is “PD (PD = Progressive Disease (>30% tumor growth))”; the “disease condition (modified RECIST), animal No. 4” value is reported as “PD (PD = Progressive Disease (>30% tumor growth))”. Further, in series [3] (10 mg/kg on NO prodrug basis), the “disease condition (modified RECIST), animal No. 5” value is given as “Necrosis” and the “disease condition (modified RECIST), animal No. 6” value is recorded as “PD (PD = Progressive Disease (>30% tumor growth))”. Moreover, the tumor size entry in series [3] (JS-K i.v. six weeks after tumor cell implantation, sugar-NO1 s.c. same time frame, 10 mg/kg) is recorded as “approximately 1000 mm^3”. Also, the animals euthanized in series [3] (within 7 weeks, tumor size exceeding 1000 mm^3 or necrosis of injection site on the tail) came to 100%. In the series on MDA-1986 cells [4], this molecule returned an IC50 of 16000 ± 2000 nM.
For `CC1CN([N+]([O-])=NOc2ccc([N+](=O)[O-])cc2[N+](=O)[O-])CCN1CCO` (stereo not drawn) [NO2, O^2-(2,4-Dinitrophenyl) 1-[[4-(2-hydroxy)ethyl]-3-methylpiperazin-1-yl]diazen-1-ium-1,2-diolate], the “Release half-life” value in the series with MDA-1986 cells [5] is given as 9.0 h. For the same molecule, the figures for the IC50 in the series with MDA-MB-468 cells and with MDA-1986 cells [4] were 27000 ± 3000 nM and 57000 ± 6000 nM, respectively.
In the case of `COC1=C2C[C@@H](C)C[C@H](OC)[C@H](O)[C@@H](C)/C=C(\C)[C@H](OC(N)=O)[C@@H](OC)/C=C\C=C(/C)C(=O)NC(=CC1=O)C2=O` [geldanamycin], the IC50 in the series on 4T1.2 Neu cells (Mus musculus, 4T1.2) amounted to 260 nM; with A2058 cells (Homo sapiens, A2058, 72 h, Star-GA on GA basis), 44 nM; with HUVEC cells (Homo sapiens, HUVEC, 72 h; read-out: IC50s HUVEC) it was 440 nM; in the series on B16F10 cells (Mus musculus, B16-F10, 72 h, Star-GA on GA basis) it was 36 nM; with MDA-MB-231 cells (Homo sapiens, MDA-MB-231) it was 963 nM.
For `N[C@@H](Cc1ccc(N(CCCl)CCCl)cc1)C(=O)O` [melphalan], the B16F10 tumor response entry in the series with B16F10 tumors was “complete response to treatment”. Further, the IC50 in the series on A2058 cells (Homo sapiens, A2058, 72 h) amounted to 30000 nM; in the series with HUVEC cells (Homo sapiens, HUVEC, 72 h, read-out: IC50s HUVEC) it was 209000 nM; in the series on B16F10 cells (Mus musculus, B16-F10, 72 h), 103000 nM.
Turning to `[N]=O` [nitric oxide], in series [6], the half-life in vivo result is “about 5 seconds”.
